From the supplement of paper PMC10307832

How the values were obtained:
Test in all cases: relative viability (nuclei count vs DMSO), 5 days (fraction); higher = more cells survive
Sulindac + Vorinostat = compound: CC1=C(CC(=O)O)c2cc(F)ccc2/C1=C\c1ccc([S+](C)[O-])cc1 [Sulindac] + O=C(CCCCCCC(=O)Nc1ccccc1)NO [Vorinostat] (partner 1 µM)
In short: (§1)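 The day after seeding in 1536-well plates, lung cancer cell lines were treated by pin tool with a single drug, or with a fixed anchor-drug dose together with five library-drug doses (not always all listed) in √10 steps. After 5 days, a combined fix-and-stain solution (final 0.05% Triton X-100, 1% formaldehyde, 1 ug/ml Hoechst) was added. Nuclei counted on 4× images gave relative viability as treated counts over vehicle counts, reported as the median of duplicate plates.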

[1] = compound: CN[C@@H]1C[C@H]2O[C@@](C)([C@@H]1OC)n1c3ccccc3c3c4c(c5c6ccccc6n2c5c31)C(=O)NC4 [Staurosporine] + O=C(CCCCCCC(=O)Nc1ccccc1)NO [Vorinostat] (partner 1 µM)
In short: as §1

Sulindac + AZD7762 = compound: CC1=C(CC(=O)O)c2cc(F)ccc2/C1=C\c1ccc([S+](C)[O-])cc1 [Sulindac] + NC(=O)Nc1cc(-c2cccc(F)c2)sc1C(=O)N[C@H]1CCCNC1 [AZD7762] (partner 0.2 µM)
In short: as §1

Sulindac + Olaparib = compound: CC1=C(CC(=O)O)c2cc(F)ccc2/C1=C\c1ccc([S+](C)[O-])cc1 [Sulindac] + O=C(c1cc(Cc2n[nH]c(=O)c3ccccc23)ccc1F)N1CCN(C(=O)C2CC2)CC1 [Olaparib] (partner 8 µM)
In short: as §1

Cell Line | relative viability (Sulindac + Vorinostat; first compound 0.08 µM) | relative viability (Sulindac + Vorinostat; first compound 0.253 µM) | relative viability (Sulindac + Vorinostat; first compound 0.8 µM) | relative viability (Sulindac + Vorinostat; first compound 2.53 µM) | relative viability (Sulindac + Vorinostat; first compound 8 µM) | relative viability ([1]; first compound 0.005 µM) | relative viability ([1]; first compound 0.01581 µM) | relative viability ([1]; first compound 0.05 µM) | relative viability ([1]; first compound 0.1581 µM) | relative viability ([1]; first compound 0.5 µM) | relative viability (Sulindac + AZD7762; first compound 0.08 µM) | relative viability (Sulindac + AZD7762; first compound 0.253 µM) | relative viability (Sulindac + AZD7762; first compound 0.8 µM) | relative viability (Sulindac + AZD7762; first compound 2.53 µM) | relative viability (Sulindac + AZD7762; first compound 8 µM) | relative viability (Sulindac + Olaparib; first compound 0.08 µM) | relative viability (Sulindac + Olaparib; first compound 0.253 µM) | relative viability (Sulindac + Olaparib; first compound 0.8 µM) | relative viability (Sulindac + Olaparib; first compound 2.53 µM) | relative viability (Sulindac + Olaparib; first compound 8 µM)
NCI-H2342 | 0.791 | 0.774 | 0.619 | 0.669 | 0.791 | 0.987 | 0.74 | 0.444 | 0.34 | 0.3 | 0.76 | 0.495 | 0.441 | 0.491 | 0.5 | 0.353 | 0.368 | 0.414 | 0.415 | 0.451
ChaGo-K-1 | 0.874 | 0.822 | 0.575 | 0.755 | 0.907 | 0.791 |  | 0.359 | 0.147 | 0.144 | 0.949 | 0.878 | 0.803 | 0.932 | 0.906 | 0.485 | 0.359 | 0.414 | 0.379 | 0.449
EMC-BAC-2 | 0.559 | 0.405 | 0.367 | 0.426 | 0.528 | 0.103 |  | 0.14 | 0.166 | 0.266 | 1.22 | 1.2 | 0.849 | 1.04 | 1.35 | 0.493 | 0.488 | 0.476 | 0.46 | 0.566
LCLC-103H | 0.872 | 0.773 | 0.729 | 0.72 | 0.799 | 0.545 | 0.16 | 0.251 | 0.211 | 0.198 | 0.88 | 0.799 | 0.708 | 0.786 | 0.91 | 0.856 | 0.757 | 0.695 | 0.798 | 0.82
LK-2 | 0.292 | 0.258 | 0.234 | 0.289 | 0.228 | 0.19 | 0.0826 | 0.246 | 0.0977 | 0.0667 | 0.456 | 0.469 | 0.318 | 0.465 | 0.414 | 0.766 | 0.998 | 0.514 | 0.592 | 0.808
NCI-H460 | 1.35 | 0.614 | 0.623 | 0.994 | 0.795 |  | 0.179 | 0.0234 | 0.0138 | 0.0076 | 0.984 | 0.639 | 0.812 | 0.64 | 0.846 | 0.579 | 0.417 | 0.432 | 0.342 | 0.635
NCI-H3122 | 0.98 | 0.752 | 0.762 | 0.964 | 1.13 | 1.04 |  | 0.549 |  | 0.131 | 1.2 | 1.08 | 1.01 | 0.968 | 0.947 | 0.739 | 0.648 | 0.579 | 0.655 | 0.604
NCI-H2126 | 0.902 | 0.79 | 0.721 | 0.715 | 0.839 | 0.784 | 0.201 | 0.426 | 0.233 |  | 1.12 | 1.03 | 0.889 | 1.01 | 1.09 | 1.12 | 0.923 | 0.87 | 0.951 | 1
NCI-H596 | 0.589 | 0.606 |  | 0.578 | 0.612 | 0.59 | 0.424 | 0.258 | 0.192 | 0.126 | 1.06 | 1.16 |  | 1.23 | 1.27 | 0.567 | 0.697 |  | 0.716 | 0.639
LOU-NH91 | 0.965 | 0.97 | 0.716 | 0.952 | 1.1 | 0.859 | 0.405 | 0.61 | 0.267 | 0.294 | 0.781 | 0.809 | 0.627 | 0.742 | 0.817 | 0.955 | 0.961 | 0.84 | 0.893 | 1.01
NCI-H1651 | 0.623 | 0.57 | 0.486 | 0.577 | 0.593 | 0.609 | 0.537 | 0.402 | 0.122 | 0.116 | 0.516 | 0.508 | 0.318 | 0.492 | 0.506 | 0.17 | 0.189 | 0.162 | 0.177 | 0.169
